Data set [1] deals with T1, PARP7 (Homo sapiens, UniProt Q7Z3E1).
T1 construct: purchased BPS 80527
T1 sequence (Q7Z3E1 1-657): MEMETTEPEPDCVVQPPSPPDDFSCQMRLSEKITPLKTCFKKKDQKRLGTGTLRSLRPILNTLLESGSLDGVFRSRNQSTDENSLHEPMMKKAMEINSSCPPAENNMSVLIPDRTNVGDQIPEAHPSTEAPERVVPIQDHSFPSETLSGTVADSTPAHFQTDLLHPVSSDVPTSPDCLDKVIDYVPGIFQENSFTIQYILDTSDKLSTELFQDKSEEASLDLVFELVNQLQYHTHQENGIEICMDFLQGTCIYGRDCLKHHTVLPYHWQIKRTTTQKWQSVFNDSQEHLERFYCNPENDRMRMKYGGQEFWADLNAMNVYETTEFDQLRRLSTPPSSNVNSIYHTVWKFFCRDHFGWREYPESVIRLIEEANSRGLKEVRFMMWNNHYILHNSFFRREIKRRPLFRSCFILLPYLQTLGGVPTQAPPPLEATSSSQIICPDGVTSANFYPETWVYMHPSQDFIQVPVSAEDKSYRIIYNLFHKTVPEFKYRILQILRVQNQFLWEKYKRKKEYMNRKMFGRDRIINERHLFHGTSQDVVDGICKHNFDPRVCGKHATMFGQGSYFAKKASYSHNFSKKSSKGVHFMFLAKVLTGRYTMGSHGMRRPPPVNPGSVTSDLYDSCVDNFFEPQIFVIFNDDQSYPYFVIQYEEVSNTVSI
Briefly: PARP7 inhibitory activity assay (histone-coated 384-well plate, chemiluminescence). It counts as biochemical. The source says:
Inhibition rate (%) calculation formula: […]

A short description of data set [2]: Liver microsomal stability study, human. It counts as in vitro ADME. As to conditions: Human liver microsomes. As to the method: (§1) The above compounds were diluted to a 1.5 μM intermediate working solution with 0.1 M potassium phosphate buffer containing 0.75 mg/mL liver microsomes, and then 30 μL of the intermediate working solution was dispensed into reaction plates for different time points (0, 5, 15, 30, 45, 60 min). 150 μL of methanol solution containing internal standard was added to the 0 min plate wells. For the other time points (5, 15, 30, 45, 60 min), the sample plates were pre-incubated at 37° C. for 5 min, after which the reaction was initiated with 15 μL of 6 mM NADPH solution and timing was started. 15 μL of 6 mM NADPH solution was added to the 0 min samples to balance the system. At 5 min, 15 min, 30 min, 45 min, and 60 min, respectively, 150 μL of methanol solution containing internal standard was added to the reaction wells to terminate the reaction. After the reaction was complete, the plates were shaken on a shaker at 600 rpm for 10 min, then centrifuged at 4000 rpm for 15 min. 80 μL of supernatant from each well was transferred to a 96-well sample plate containing 150 μL of ultrapure water, mixed, and then analyzed by LC/MS to calculate T1/2.
A general note: Microsomes from liver hold many membrane-bound enzymes, among them those of drug oxidation.

Data set [3] is described as follows: Liver microsomal stability study, rat. Format: in vitro ADME. The following applies: Rat liver microsomes. As for the experimental part:
as §1

A short description of data set [4]: Liver microsomal stability study, mouse. It counts as in vitro ADME. The following applies: Mouse liver microsomes. As for the experimental part:
as §1

A short description of data set [5]: Mouse pharmacokinetic study. It counts as in vivo. The following applies: BALB/c mice; for AUC(0-t) / Cmax / Tmax / half-life: female, mouse, plasma. From the text: • (1) Study design: Female healthy Balb/c mice (specific pathogen-free (SPF) grade) were used as test animals, divided into 2 dose groups with 3 mice in each group, for single intravenous injection and single oral gavage administration, respectively. The vehicle formulations were […] (DMSO)+10% Solutol+85% Saline and 0.5% methylcellulose (MC), respectively. • (2) Plasma sample collection and processing: Blood was collected from the orbital venous plexus of the mice. After intravenous (IV) bolus administration, samples were collected at 0.083 h, 0.25 h, 0.5 h, 1 h, 2 h, 4 h, 8 h, and 24 h. After oral (PO) administration, samples were collected at 0.25 h, 0.5 h, 1 h, 2 h, 4 h, 6 h, 8 h, and 24 h. An appropriate volume of whole blood samples was collected with EDTA-K2 anticoagulation, placed on wet ice after collection, and plasma was separated by centrifugation within 30 min (centrifugation conditions: 4000 rpm, 10 minutes, 2-8° C.). The collected plasma samples were stored in a −70° C. freezer before analysis. After analysis, the remaining plasma samples continued to be stored in a −70° C. freezer. • (3) Analytical batch processing and pharmacokinetic parameter calculation: The concentration of the test substance in the plasma samples was determined. The accuracy of quality control samples was evaluated concurrently with the analysis of the samples, with the requirement that more than 66.7% of the quality control samples have an accuracy between 80-120%. Using the plasma concentration data at different time points, pharmacokinetic parameters such as C0 (IV), Area Under the Curve (AUC)(0-t), T1/2, Cmax, Tmax, and Mean Residence Time (MRT) were calculated using WinNonlin.

Data set [6] concerns the target T2, PARP2 (Homo sapiens, UniProt Q9UGN5).
T2 construct: purchased BPS Bioscience
Briefly: PARP2 inhibitory activity assay (BPS PARP2 Chemiluminescent Activity Assay Kit). Format: biochemical. The source says:
The PARP2 enzyme activity assay method used in the present disclosure employs reagents from the PARP2 Chemiluminescent Activity Assay Kit from BPS Bioscience, USA. […] The test results are shown in Table 1. /” indicates not tested.

T2 sequence (Q9UGN5 whole entry): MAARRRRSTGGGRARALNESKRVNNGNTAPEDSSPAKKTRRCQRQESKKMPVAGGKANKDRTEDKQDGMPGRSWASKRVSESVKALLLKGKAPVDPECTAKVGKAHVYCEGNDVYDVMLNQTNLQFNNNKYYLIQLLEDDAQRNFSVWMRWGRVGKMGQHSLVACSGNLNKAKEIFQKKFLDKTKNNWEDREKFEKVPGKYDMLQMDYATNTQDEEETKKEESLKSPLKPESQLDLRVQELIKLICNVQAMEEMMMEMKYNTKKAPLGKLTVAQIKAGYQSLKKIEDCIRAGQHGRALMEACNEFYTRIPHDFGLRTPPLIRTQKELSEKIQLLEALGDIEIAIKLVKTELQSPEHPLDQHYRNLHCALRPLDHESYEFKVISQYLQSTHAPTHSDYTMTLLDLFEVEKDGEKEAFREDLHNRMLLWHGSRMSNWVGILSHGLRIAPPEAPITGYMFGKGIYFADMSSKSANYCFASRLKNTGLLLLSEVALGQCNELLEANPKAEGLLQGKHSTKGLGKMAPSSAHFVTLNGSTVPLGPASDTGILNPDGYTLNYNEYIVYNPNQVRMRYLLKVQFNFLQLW

`O=C(C1CN(Cc2cc(C(F)(F)F)c(=O)[nH]n2)C1)N1CCN(c2ncc(C(F)(F)F)cn2)CC1` [Embodiment 5, 4-(trifluoromethyl)-6-((3-(4-(5-(trifluoromethyl)pyrimidin-2-yl)piperazine-1-carbonyl)azetidin-1-yl)methyl)pyridazin-3(2H)-one]: the IC50 (usually the midpoint of a concentration-inhibition curve) in data set [1] was 10 to 100 nM. Further, in data set [2], the half-life (usually the time needed for the level to fall by half in the phase considered) at 1 µM is above 60 min. This compound also returned a half-life at 1 µM in data set [3] above 60 min. Besides, in data set [4], the half-life at 1 µM was above 60 min. Further, in data set [5] (PO, 10 mg/kg, 0.5% MC), the F is on record as 66.00%; the AUC(0-t) (in general, the area under the concentration-time curve up to a stated or last time point) is 52100 ng·h/mL; the peak level (Cmax) was 22000 ng/mL; the Tmax (usually the time from dosing to the highest level) is 19.8 min. In data set [5] (PO, 10 mg/kg, 0.5% MC), this compound gave a half-life of 58.8 min. In data set [5] (IV, 1 mg/kg), the exposure AUC(0-t) turned out to be 7900 ng·h/mL, the peak level (Cmax) was 4210 ng/mL, the time of peak concentration (Tmax) came out at 4.8 min and the half-life was 76.8 min.
Turning to `O=c1[nH]nc(CN[C@H]2C[C@H](C(=O)N3CCN(c4ncc(C(F)(F)F)cn4)CC3)C2)cc1C(F)(F)F` [Embodiment 12], the IC50 in data set [1] was 10 to 100 nM. The compound further displayed a half-life at 1 µM in data set [2] above 60 min. Further, the half-life at 1 µM in data set [3] was above 60 min. For the same compound, the half-life at 1 µM in data set [4] is above 60 min. Besides, in data set [5] (PO, 10 mg/kg, 0.5% MC), the F came out at 59.45%, the AUC(0-t) was found to be 10700 ng·h/mL, the Cmax (commonly the peak of the concentration-time curve) is 7060 ng/mL and the Tmax was determined as 15 min. In data set [5] (PO, 10 mg/kg, 0.5% MC), this compound showed a half-life of 48.6 min. In addition, in data set [5] (IV, 1 mg/kg), the AUC(0-t) was 1790 ng·h/mL, the peak level (Cmax) was 1200 ng/mL, the Tmax is 4.8 min and the half-life was 53.4 min.
As for `CC(=O)Nc1cc(C(F)(F)F)cnc1N1CCN(C(=O)[C@H]2C[C@H](NC(C)(C)c3cc(C(F)(F)F)c(=O)[nH]n3)C2)CC1` [Embodiment 61, N-(2-(4-((1R,3R)-3-((2-(6-oxo-5-(trifluoromethyl)-1,6-dihydropyridazin-3-yl)propan-2-yl)amino)cyclobutane-1-carbonyl)piperazin-1-yl)-5-(trifluoromethyl)pyridin-3-yl)acetamide], the IC50 in data set [1] was below 10 nM; in data set [6] it was 100 to 1000 nM. In addition, the half-life at 1 µM in data set [2], in data set [3] and in data set [4] was above 60 min throughout.
With `CC(=O)Nc1cc(C(F)(F)F)cnc1N1CCN(C(=O)[C@H]2C[C@H](NCc3cc(C(F)(F)F)c(=O)[nH]n3)C2)CC1` [Embodiment 63, N-(2-(4-((1R,3R)-3-(((6-oxo-5-(trifluoromethyl)-1,6-dihydropyridazin-3-yl)methyl)amino)cyclobutane-1-carbonyl)piperazin-1-yl)-5-(trifluoromethyl)pyridin-3-yl)acetamide], the IC50 in data set [1] is below 10 nM; in data set [6] it was 100 to 1000 nM. The half-life at 1 µM in data set [2], in data set [3] and in data set [4] was above 60 min throughout.

For the origin of these results see patent publication US20260200942A1, “PARP7 INHIBITORS AND THEIR APPLICATIONS” (CHONGQING PHARSCIN INNOBIO CO., LTD., priority 2023, published 2026).
